From US11299467B2 (Antabio SAS, priority 2017, dated 2022)
≈ marks a conversion by molar mass, not a printed value. Like-named read-outs stand apart in the source and are kept apart here.

How the values were obtained:
Assay type in all cases: cell-based
[1] = test system: NTBC020 (E. coli strain expressing NDM-1, TEM-1 and CTX-M-15); assay: Meropenem MIC, broth micro-dilution, NTBC020; conditions: Escherichia coli, read-out: MIC mero
Method: (§1) The experiments were carried out using the ‘broth micro-dilution method’ according to the protocols M07-A8 established by the Clinical Laboratory Standards Institute (CLSI). Serial dilutions of the β-lactam antibiotic (Meropenem) were prepared in 96-well plates in cation-adjusted Mueller-Hinton broth (CAMHB); the concentration range was defined from 0.03 mg/L to 512 mg/L. The compounds were added at a constant concentration of 8 μg/mL. A bacterial inoculum of each strain (clinical isolates) was adjusted to a 0.5 McFarland turbidity standard in physiologic serum (0.9% NaCl), then diluted 1:100 in CAMHB and added to each well to give a final bacterial cell number of 5×10^5 CFU/well. After incubation for 18-20 hours in a heating chamber at 37° C., the growth inhibition was evaluated by the absence of any bacterial development.
(§2) Compounds of the invention were tested at a constant concentration of 8 μg/mL. […]
(§3) Experiments were carried out using the ‘broth micro-dilution method’ according to the protocols M07-A8 established by the Clinical Laboratory Standards Institute (CLSI). […] After incubation for 18-20 hours in a heating chamber at 37° C., the growth inhibition was evaluated by the absence of any bacterial development. […]

[2] = test system: NTBC104-1 (K. pneumoniae strain expressing NDM-1 and SHV-11); assay: Meropenem MIC, broth micro-dilution, NTBC104-1; conditions: Klebsiella pneumoniae
Method: as §1
Compounds of the invention were tested at a constant concentration of 8 μg/mL. The clinical strains used in these potentiation experiments were NTBC020 (E. coli strain expressing NDM-1, TEM-1 and CTX-M-15); NTBC035-2 (K. pneumoniae strain expressing NDM-1, CMY-4 and SHV-11); NTBC104-1 (K. pneumoniae strain expressing NDM-1 and SHV-11); NTBC123 (K. pneumoniae strain expressing NDM-1); NTBC018 (C. freundii strain expressing VIM-2); NTBC024 (K. pneumoniae strain expressing VIM-19, TEM-1 and CTX-M-3); NTBC042 (E. coli strain expressing VIM-1, TEM-1, CTX-M-15, SHV-12); NTBC055 (E. Coli strain expressing VIM-1); NTBC062 (K. pneumoniae strain expressing IMP-1 and TEM-1) and NTBC039 (K. oxytoca strain expressing IMP-28).
Mice were infected in the thigh with K. pneumoniae NTBC104. […] The MIC of meropenem in the presence of 8 ug/mL of the compound of Example 2 is 4 ug/mL.
as §3

[3] = test system: NTBC123 (K. pneumoniae strain expressing NDM-1); assay: Meropenem MIC, broth micro-dilution, NTBC123; conditions: Klebsiella pneumoniae, read-out: MIC mero
Method: as §1, §2, §3

[4] = test system: NTBC042 (E. coli strain expressing VIM-1, TEM-1, CTX-M-15, SHV-12); assay: Meropenem MIC, broth micro-dilution, NTBC042; conditions: Escherichia coli, read-out: MIC mero
Method: as §1, §2, §3

[5] = test system: NTBC062 (K. pneumoniae strain expressing IMP-1 and TEM-1); assay: Meropenem MIC, broth micro-dilution, NTBC062; conditions: Klebsiella pneumoniae, read-out: MIC mero
Method: as §1, §2, §3

[6] = test system: NTBC096-1 (K. pneumonia strain expressing OXA-181 and SHV-11); assay: Meropenem MIC, broth micro-dilution, NTBC096-1; conditions: Klebsiella pneumoniae, read-out: MIC mero
Method: as §1, with “Experiments” for “The experiments”, “meropenem (mero)” for “the β-lactam antibiotic (Meropenem)”, “compounds (the compound of Example 2, above, and/or WCK4234)” for “compounds”, “the” for “a constant”, “indicated in the table below.” for “of 8 μg/mL.”
(§4) NTBC091-1 (E. coli strain expressing KPC-2 and TEM-1); NTBC093 (E. cloacae strain expressing KPC-2 and TEM-1); NTBC096-1 (K. pneumonia strain expressing OXA-181 and SHV-11); NTBC099 (K. pneumonia strain expressing KPC-3, SHV-11 and TEM-1); and NTBC189 (K. pneumonia strain expressing TEM-OSBL, CTX-M-14 and OXA-48).

[7] = test system: NTBC189 (K. pneumonia strain expressing TEM-OSBL, CTX-M-14 and OXA-48); assay: Meropenem MIC, broth micro-dilution, NTBC189; conditions: Klebsiella pneumoniae, read-out: MIC mero
Method: as §1, with “Experiments” for “The experiments”, “meropenem (mero)” for “the β-lactam antibiotic (Meropenem)”, “compounds (the compound of Example 2, above, and/or WCK4234)” for “compounds”, “the” for “a constant”, “indicated in the table below.” for “of 8 μg/mL.”
as §4

[8] = test system: NTBC185 (K. pneumonia strain expressing SHV-OSBL, TEM-OSBL, NDM-1 and OXA-48); assay: Meropenem MIC, broth micro-dilution, NTBC185; conditions: Klebsiella pneumoniae, read-out: MIC mero
Method: as §1, with “Experiments” for “The experiments”, “meropenem (mero)” for “the β-lactam antibiotic (Meropenem)”, “compounds (the compound of Example 2, above, and/or WCK4234)” for “compounds”, “the” for “a constant”, “indicated in the table below.” for “of 8 μg/mL.”
NTBC019 (K. pneumonia strain expressing NDM-1, CTX-M-15 and OXA-181); NTBC185 (K. pneumonia strain expressing SHV-OSBL, TEM-OSBL, NDM-1 and OXA-48); NTBC186 (K. pneumonia strain expressing ACT-TYPE, VIM-1 and OXA-48); NTBC187 (K. pneumonia strain expressing SHV-OSBL, NDM-1 and OXA-48); and NTBC188 (K. pneumonia strain expressing NDM-1 and KPC-2).

[9] = test system: panel of clinical Enterobacteriacae strains expressing NDM enzymes (196 isolates); assay: Extended MIC profiling vs MBL-expressing clinical strains (meropenem potentiation); conditions: 196 NDM-expressing clinical isolates
Source text: By contrast, the same concentration of meropenem alone is only capable of stopping the growth of <1% of the strains and within the parameters of the experiment the cessation of growth of 90% of all strains could not be achieved with meropenem alone.
To assess the coverage and potentiation of meropenem by compounds of the invention, the susceptibility of around 200 clinical isolates was examined. The criteria for selection into the panel was that the clinical strain was resistant to carbapenems, but only expressing NDM enzyme variants and not serine betalactamase enzymes with carbapenemase activity such as KPC or OXA.

**Q.** For `C[C@@H](O)[C@H]1C(=O)N2C(C(=O)O)=C(S[C@@H]3CN[C@H](C(=O)N(C)C)C3)[C@H](C)[C@H]12` [Meropenem], which MIC [1] is on record?
**A.** Its MIC is 128 µg/mL.

**Q.** And the MIC ([2]; read-out: MIC mero)?
**A.** Its MIC is 64 µg/mL.

**Q.** And the MIC ([2]; read-out: MIC of meropenem against K. pneumoniae NTBC104)?
**A.** The MIC was 64 µg/mL.

**Q.** And the MIC [3]?
**A.** Its MIC is 128 µg/mL.

**Q.** What about the MIC [4] of the same compound?
**A.** The MIC was 8 µg/mL.

**Q.** And the MIC [5]?
**A.** The MIC was 4 µg/mL.

**Q.** What about the MIC [6] of the same compound?
**A.** Its MIC is 16 µg/mL (≈ 41.7 µM).

**Q.** And the MIC [7]?
**A.** Its MIC is 16 µg/mL (≈ 41.7 µM).

**Q.** And the MIC [8]?
**A.** The MIC was 128 µg/mL (≈ 334 µM).

**Q.** What about the “strains whose growth is stopped by the same concentration (8 ug/mL) of meropenem alone” value [9] of the same compound?
**A.** The value was less than 1%.
